This assay deals with T1, Chk1 (Homo sapiens, UniProt O14757).
T1 construct: purchased Upstate Biotechnology
T1 sequence (O14757 1-476): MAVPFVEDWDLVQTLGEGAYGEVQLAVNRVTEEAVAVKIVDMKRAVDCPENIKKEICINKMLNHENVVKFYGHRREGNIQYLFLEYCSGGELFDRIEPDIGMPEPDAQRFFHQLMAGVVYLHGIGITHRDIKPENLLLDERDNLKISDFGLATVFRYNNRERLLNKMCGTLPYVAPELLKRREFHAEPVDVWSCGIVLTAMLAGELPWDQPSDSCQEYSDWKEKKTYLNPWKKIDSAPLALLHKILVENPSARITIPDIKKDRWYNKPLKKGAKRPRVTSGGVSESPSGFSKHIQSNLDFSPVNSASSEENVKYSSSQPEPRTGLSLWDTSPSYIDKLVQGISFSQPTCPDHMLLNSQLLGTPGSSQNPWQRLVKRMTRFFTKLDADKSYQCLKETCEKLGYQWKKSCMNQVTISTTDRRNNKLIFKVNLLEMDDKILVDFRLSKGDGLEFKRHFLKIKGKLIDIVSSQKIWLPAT
Description: Chk1 kinase assay: incorporation of γ-33P ATP into immobilized myelin basic protein. Conditions: Table 11; Chk1 only; read-out: Chk1 IC50. The class given is biochemical. The gist of the method: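 MBP coated on plates (20 μg/ml) was phosphorylated by Chk1 (10 nM) or Chk2 (20 nM) with γ-33P ATP plus 10 μM (Chk1) or 30 μM (Chk2) unlabeled ATP, 1 h at room temperature, 1% DMSO. Bound radioactivity was counted by scintillation after washing; IC50 or Ki derived from fitted rate data.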
One may read the IC50 as the concentration needed to halve the response being measured. As for `Nc1ncc(-c2cccc(CN[C@H]3CCc4ccccc43)c2)nc1C(=O)NCCCCO` [Example 539, 3-amino-6-(3-{[(1S)-2,3-dihydro-1H-inden-1-ylamino]methyl}phenyl)-N-(4-hydroxybutyl)pyrazine-2-carboxamide], the IC50 fell in the range of 0.05 to 1 µM. Regarding `Nc1ncc(-c2cccc(CN[C@H]3CCc4ccccc43)c2)nc1C(=O)NCCN1CCCC1` [Example 540, 3-amino-6-(3-{[(1S)-2,3-dihydro-1H-inden-1-ylamino]methyl}phenyl)-N-(2-pyrrolidin-1-ylethyl)pyrazine-2-carboxamide], the IC50 is 0.05 to 1 µM.

Consider `Nc1ncc(-c2cccc(CN[C@H]3CCc4ccccc43)c2)nc1C(=O)NCCN1CCCCC1` [Example 541, 3-amino-6-(3-{[(1S)-2,3-dihydro-1H-inden-1-ylamino]methyl}phenyl)-N-(2-piperidin-1-ylethyl)pyrazine-2-carboxamide], for which the IC50 lay in the range of 1 to 10 µM. As for `Nc1ncc(-c2cccc(CN[C@H]3CCc4ccccc43)c2)nc1C(=O)NCCN1CCOCC1` [Example 542, 3-amino-6-(3-{[(1S)-2,3-dihydro-1H-inden-1-ylamino]methyl}phenyl)-N-(2-morpholin-4-ylethyl)pyrazine-2-carboxamide], the figure is 1 to 10 µM; as for `Nc1ncc(-c2cccc(CN[C@H]3CCc4ccccc43)c2)nc1C(=O)NCC1CC1` [Example 543, 3-amino-N-(cyclopropylmethyl)-6-(3-{[(1S)-2,3-dihydro-1H-inden-1-ylamino}methyl}phenyl)pyrazine-2-carboxamide], 0.05 to 1 µM. Consider `Nc1ncc(-c2cccc(CN[C@H]3CCc4ccccc43)c2)nc1C(=O)NCc1ccccc1` [Example 544, 3-amino-6-(3-{[(1S)-2,3-dihydro-1H-inden-1-ylamino]methyl}phenyl)-N-(phenylmethyl)pyrazine-2-carboxamide], for which the IC50 is 1 to 10 µM.

For `Nc1ncc(-c2cccc(CN[C@H]3CCc4ccccc43)c2)nc1C(=O)NCCc1ccccc1` [Example 545, 3-amino-6-(3-{[(1S)-2,3-dihydro-1H-inden-1-ylamino]methyl}phenyl)-N-(2-phenylethyl)pyrazine-2-carboxamide], the IC50 was in the range of 1 to 10 µM. As for `Nc1ncc(-c2cccc(CN[C@H]3CCc4ccccc43)c2)nc1C(=O)c1ccccc1` [Example 546, [3-amino-6-(3-{[(1S)-2,3-dihydro-1H-inden-1-ylamino]methyl}phenyl)pyrazin-2-yl](phenyl)methanone], the figure is 0.05 to 1 µM; as for `Nc1ncc(-c2cccc(CN[C@H]3CCc4ccccc43)c2)nc1C(=O)NCCO` [Example 547, 3-amino-6-(3-{[(1S)-2,3-dihydro-1H-inden-1-ylamino]methyl}phenyl)-N-(2-hydroxyethyl)pyrazine-2-carboxamide], 0.05 to 1 µM. Consider `Nc1ncc(-c2cccc(CN[C@H]3CCc4ccccc43)c2)nc1C(=O)NC1CC1` [Example 548, 3-amino-N-cyclopropyl-6-(3-{[(1S)-2,3-dihydro-1H-inden-1-ylamino]methyl}phenyl)pyrazine-2-carboxamide], for which the IC50 lay within 0.05 to 1 µM.

As to `Nc1ncc(-c2cccc(CN[C@H]3CCc4ccccc43)c2)nc1C(=O)N1CCCC1` [Example 549, 5-(3-{[(1S)-2,3-dihydro-1H-inden-1-ylamino]methyl}phenyl)-3-(pyrrolidin-1-ylcarbonyl)pyrazin-2-amine], the IC50 lay within 1 to 10 µM. For `Cc1nnc(-c2nc(-c3cccc(CO)c3)cnc2N)[nH]1` [Example 550, {3-[5-amino-6-(5-methyl-4H-1,2,4-triazol-3-yl)pyrazin-2-yl]phenyl}methanol] the value was 1 to 10 µM. For `Nc1ncc(-c2cccc(CO)c2)nc1-c1nnc(-c2ccccc2)[nH]1` [Example 551, {3-[5-amino-6-(5-phenyl-4H-1,2,4-triazol-3-yl)pyrazin-2-yl]phenyl}methanol] the value was 0.05 to 1 µM; for `Nc1ncc(-c2cccc(CO)c2)nc1-c1nnc(Cc2ccccc2)[nH]1` [Example 552, (3-{5-amino-6-[5-(phenylmethyl)-4H-1,2,4-triazol-3-yl]pyrazin-2-yl}phenyl)methanol], 1 to 10 µM.
